From patent US7998993B2, “TRPV1 antagonists” (Abbott Laboratories, priority 2007, dated 2011)
Like-named read-outs stand apart in the source and are kept apart here.

Legend:
[1] = Plasma and brain concentrations in rats after an oral dose; assay type: in vivo; conditions: rat, fasted male Sprague-Dawley rats, two hours after dosing; for Kp at 2 h: brain/plasma
Experimental: The compounds were prepared as a solution in a 10% DMSO/poly(ethylene glycol)-400 (v/v). Blood and brain samples were obtained from each animal two hours after dosing.
Rat brain tissue was homogenized with two parts water (by weight). Test compound was selectively extracted from plasma and brain homogenate using liquid-liquid extraction with tert-butylmethylether. The compounds of interest were separated from co-extracted contaminants on a 50×3 mm, Luna CN column (Phenomenex), with an acetonitrile:0.1% aqueous trifluoroacetic acid mobile phase at a flow rate of 0.35 ml/min. Plasma and tissue concentrations were determined by HPLC-MS/MS on an API2000 with Turbo Ion Spray interface, with MRM detection in the positive ionization mode. To calibrate compound concentration, a separate portion of each tissue sample was spiked with a known quantity of test compound and analyzed simultaneously with the samples.

[2] = target: T1, human TRPV1 receptor (Homo sapiens, UniProt Q8NER1); assay: Ca2+ influx assay (FLIPR, Fluo-4 AM) with capsaicin challenge in 1321N1 cells expressing recombinant TRPV1; assay type: cell-based; conditions: inhibition of 0.05 μM capsaicin response, hTRPV1 in 1321N1 human astrocytoma cells
T1 construct: expressed in transfected cells
Experimental: Dulbecco's modified Eagle medium (D-MEM) (with 4.5 mg/mL glucose) and fetal bovine serum were obtained from Hyclone Laboratories, Inc. (Logan, Utah). Dulbecco's phosphate-buffered saline (D-PBS) (with 1 mg/mL glucose and 3.6 mg/l Na pyruvate, without phenol red), L-glutamine, hygromycin B, and Lipofectamine® were obtained from Life Technologies (Grand Island, N.Y.). G418 sulfate was obtained from Calbiochem-Novabiochem Corp. (San Diego, Calif.). Capsaicin (8-methyl-N-vanillyl-6-nonenamide) was obtained from Sigma-Aldrich, Co. (St. Louis, Mo.). Fluo-4 AM (N-[4-[6-[(acetyloxy)methoxy]-2,7-difluoro-3-oxo-3H-xanthen-9-yl]-2-[2-[2-[bis[2-[(acetyloxy)methoxy]-2-oxyethyl]amino]-5-methy lphenoxy]ethoxy]phenyl]-N-[2-[(acetyloxy)methoxy]-2-oxyethyl]-glycine, (acetyloxy)methyl ester) was purchased from Molecular Probes (Eugene, Oreg.).
The cDNAs for the human TRPV1 receptor were isolated by reverse transcriptase-polymerase chain reaction (RT-PCR) from human small intestine poly A+RNA supplied by Clontech (Palo Alto, Calif.) using primers designed surrounding the initiation and termination codons identical to the published sequences (Hayes et al. Pain Vol. 88 pages 205-215, 2000). The resulting cDNA PCR products were subcloned into pCIneo mammalian expression vector (Promega) and fully sequenced using fluorescent dye-terminator reagents (Prism, Perkin-Elmer Applied Biosystems Division) and a Perkin-Elmer Applied Biosystems Model 373 DNA sequencer or Model 310 genetic analyzer. Expression plasmids encoding the hTRPV1 cDNA were transfected individually into 1321N1 human astrocytoma cells using Lipofectamine®. Forty-eight hours after transfection, the neomycin-resistant cells were selected with growth medium containing 800 μg/mL Geneticin (Gibco BRL). Surviving individual colonies were isolated and screened for TRPV1 receptor activity. Cells expressing recombinant homomeric TRPV1 receptors were maintained at 37° C. in D-MEM containing 4 mM L-glutamine, 300 μg/mL G418 (Cal-biochem) and 10% fetal bovine serum under a humidified 5% CO2 atmosphere.
The functional activity of compounds at the TRPV1 receptor was determined with a Ca^2+ influx assay and measurement of intracellular Ca^2+ levels ([Ca^2+]i). All compounds were tested over an 11-point half-log concentration range. Compound solutions were prepared in D-PBS (4× final concentration), and diluted serially across 96-well v-bottom tissue culture plates using a Biomek 2000 robotic automation workstation (Beckman-Coulter, Inc., Fullerton, Calif.). A 0.2 μM solution of the TRPV1 agonist capsaicin was also prepared in D-PBS. The fluorescent Ca^2+ chelating dye Fluo-4 AM was used as an indicator of the relative levels of [Ca^2+]i in a 96-well format using a Fluorescence Imaging Plate Reader (FLIPR)(Molecular Devices, Sunnyvale, Calif.). Cells were grown to confluency in 96-well black-walled tissue culture plates. Then, prior to the assay, the cells were loaded with 100 μL per well of Fluo-4 AM (2 μM, in D-PBS) for 1-2 hours at 23° C. Washing of the cells was performed to remove extracellular Fluo-4 AM (2×1 mL D-PBS per well), and afterward, the cells were placed in the reading chamber of the FLIPR instrument. 50 μL of the compound solutions were added to the cells at the 10 second time mark of the experimental run. Then, after a 3-minute time delay, 50 μL of the capsaicin solution was added at the, 190 seconds time mark (0.05 μM final concentration)([…]) to challenge the TRPV1 receptor. Time length of the experimental run was 240 seconds. Fluorescence readings were made at 1 to 5 second intervals over the course of the experimental run. The peak increase in relative fluorescence units (minus baseline) was calculated from the 190 seconds time mark to the end of the experimental run, and expressed as a percentage of the 0.05 μM capsaicin (control) response.

[3] = brain, 30 μmol/kg oral, read-out: [Brain]
[4] = plasma, 30 μmol/kg oral, read-out: [Plasma]
[5] = brain, 10 μmol/kg PO, read-out: [Brain]
[6] = plasma, 10 μmol/kg PO, read-out: [Plasma]

T1 sequence (Q8NER1 whole entry): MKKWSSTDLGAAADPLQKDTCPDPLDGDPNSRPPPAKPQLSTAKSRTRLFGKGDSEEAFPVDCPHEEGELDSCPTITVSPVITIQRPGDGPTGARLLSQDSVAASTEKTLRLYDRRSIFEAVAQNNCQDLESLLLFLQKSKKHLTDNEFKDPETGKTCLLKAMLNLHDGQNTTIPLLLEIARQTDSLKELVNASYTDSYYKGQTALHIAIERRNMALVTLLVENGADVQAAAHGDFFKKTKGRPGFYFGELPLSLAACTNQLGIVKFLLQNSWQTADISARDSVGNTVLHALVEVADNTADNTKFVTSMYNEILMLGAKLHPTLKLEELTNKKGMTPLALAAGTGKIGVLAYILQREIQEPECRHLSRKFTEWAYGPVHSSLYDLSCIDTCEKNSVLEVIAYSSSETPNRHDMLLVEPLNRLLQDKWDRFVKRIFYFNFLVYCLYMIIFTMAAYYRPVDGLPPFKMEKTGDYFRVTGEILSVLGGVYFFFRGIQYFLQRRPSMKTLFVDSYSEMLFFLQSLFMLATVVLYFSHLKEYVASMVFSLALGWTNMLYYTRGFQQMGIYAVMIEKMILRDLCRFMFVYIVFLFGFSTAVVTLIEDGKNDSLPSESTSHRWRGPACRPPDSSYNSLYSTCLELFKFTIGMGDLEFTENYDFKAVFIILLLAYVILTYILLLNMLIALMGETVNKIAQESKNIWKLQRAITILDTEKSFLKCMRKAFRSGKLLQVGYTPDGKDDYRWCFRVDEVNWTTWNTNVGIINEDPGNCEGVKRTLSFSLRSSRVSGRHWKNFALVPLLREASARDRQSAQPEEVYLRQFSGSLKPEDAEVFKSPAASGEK

Row | SMILES | Kp at 2 h ([1]; 30 μmol/kg oral) | concentration at 2 h [1, 3] | concentration at 2 h [1, 4] | IC50 [2] | Kp at 2 h ([1]; 10 μmol/kg PO) | concentration at 2 h [1, 5] | concentration at 2 h [1, 6]
1 | Cc1nc(Nc2cccc3c2CC(O)CC3)oc1-c1ccc(C(F)(F)F)cc1F (stereo not drawn) [Compound 5, 8-({5-[2-fluoro-4-(trifluoromethyl)phenyl]-4-methyl-1,3-oxazol-2-yl}amino)-1,2,3,4-tetrahydronaphthalen-2-ol] | 3 | 660 ng/g | 210 ng/mL | 43 nM |  |  | 
2 | Cc1nc(Nc2cccc3c2CC(O)CC3)oc1-c1ccc(C(F)(F)F)c(F)c1F (stereo not drawn) [Compound 6, 8-({5-[2,3-difluoro-4-(trifluoromethyl)phenyl]-4-methyl-1,3-oxazol-2-yl}amino)-1,2,3,4-tetrahydronaphthalen-2-ol] | 1.7 | 230 ng/g | 130 ng/mL | 62 nM |  |  | 
3 | Cc1nc(Nc2cccc3c2CC(O)CC3)oc1-c1ccc(OC(F)(F)F)cc1 (stereo not drawn) [Compound 9, 8-({4-methyl-5-[4-(trifluoromethoxy)phenyl]-1,3-oxazol-2-yl}amino)-1,2,3,4-tetrahydronaphthalen-2-ol] | 4 | 2100 ng/g | 510 ng/mL | 184 nM |  |  | 
4 | Cc1nc(Nc2cccc3c2CC(O)CC3)oc1-c1ccc(C(F)(F)F)cc1 (stereo not drawn) [Compound 12, 8-({4-methyl-5-[4-(trifluoromethyl)phenyl]-1,3-oxazol-2-yl}amino)-1,2,3,4-tetrahydronaphthalen-2-ol] | 6.3 | 3300 ng/g | 490 ng/mL |  |  |  | 
5 | Cc1nc(Nc2cccc3c2CC(O)CC3)oc1-c1ccc(Cl)cc1 (stereo not drawn) [Compound 13, 8-{[5-(4-chlorophenyl)-4-methyl-1,3-oxazol-2-yl]amino}-1,2,3,4-tetrahydronaphthalen-2-ol] | 5.6 | 600 ng/g | 93 ng/mL | 108 nM |  |  | 
6 | Cc1nc(Nc2cccc3c2CC(O)CC3)oc1-c1ccc(C#N)cc1 (stereo not drawn) [Compound 15, 4-{2-[(7-hydroxy-5,6,7,8-tetrahydronaphthalen-1-yl)amino]-4-methyl-1,3-oxazol-5-yl}benzonitrile] | 1.3 | 310 ng/g | 250 ng/mL | 36 nM |  |  | 
7 | Cc1nc(Nc2cccc3c2CC(O)CC3)oc1-c1ccc(C(F)(F)F)o1 (stereo not drawn) [Compound 31, 8-({4-methyl-5-[5-(trifluoromethyl)-2-furyl]-1,3-oxazol-2-yl}amino)-1,2,3,4-tetrahydronaphthalen-2-ol] |  |  |  | 703 nM | 1.3 | 50 ng/g | 40 ng/mL
8 | C=C(C)[C@H]1CC=C(c2oc(Nc3cccc4c3CC(O)CC4)nc2C)CC1 (stereo partly drawn) [Compound 32, 8-({5-[(4R)-4-isopropenylcyclohex-1-en-1-yl]-4-methyl-1,3-oxazol-2-yl}amino)-1,2,3,4-tetrahydronaphthalen-2-ol] |  |  |  | 395 nM | 1.9 | 15 ng/g | 9 ng/mL
9 | Cc1nc(Nc2cccc3c2CC(O)CC3)oc1-c1ccc(S(F)(F)(F)(F)F)cc1 (stereo not drawn) [Compound 40, 8-({4-methyl-5-[4-(pentafluoro-lambda˜6˜sulfanyl)phenyl]-1,3-oxazol-2-yl}amino)-1,2,3,4-tetrahydronaphthalen-2-ol] |  |  |  | 52 nM | 1.4 | 160 ng/g | 110 ng/mL
10 | CCc1nc(Nc2cccc3c2C[C@H](O)CC3)oc1-c1ccc(C(F)(F)F)cc1 [Compound 43, (2R)-8-({4-ethyl-5-[4-(trifluoromethyl)phenyl]-1,3-oxazol-2-yl}amino)-1,2,3,4-tetrahydronaphthalen-2-ol] |  |  |  | 74 nM | 2.8 | 410 ng/g | 140 ng/mL
11 | Cc1nc(Nc2cccc3c2CC(O)CO3)oc1-c1ccc(C(F)(F)F)cc1 (stereo not drawn) [Compound 51, 5-({4-methyl-5-[4-(trifluoromethyl)phenyl]-1,3-oxazol-2-yl}amino)chroman-3-ol] |  |  |  | 618 nM | 2.7 | 800 ng/g | 300 ng/mL
12 | O[C@@H]1CCc2cccc(Nc3nc(C(F)F)c(-c4ccc(C(F)(F)F)cc4)o3)c2C1 [Compound 53, (2R)-8-({4-(difluoromethyl)-5-[4-(trifluoromethyl)phenyl]-1,3-oxazol-2-yl}amino)-1,2,3,4-tetrahydronaphthalen-2-ol] |  |  |  | 38 nM | 3.4 | 930 ng/g | 270 ng/mL
13 | OC1CCc2cccc(Nc3ncc(-c4ccc(C(F)(F)F)cc4)o3)c2C1 (stereo not drawn) [Compound A, 8-({5-[4-(trifluoromethyl)phenyl]-1,3-oxazol-2-yl}amino)-1,2,3,4-tetrahydronaphthalen-2-ol, reference compound] | 0 | 0 ng/g | 0 ng/mL | 22 nM |  |  | 
